Patent publication US20240131032A1, “AN ACTIVITY-GUIDED MAP OF ELECTROPHILE-CYSTEINE INTERACTIONS IN PRIMARY HUMAN IMMUNE CELLS” (The Scripps Research Institute, priority 2019, published 2024)
Residues, ends and D or L forms follow the SMILES beside them. *: point of attachment. Cbz = O=C(OCc1ccccc1)*

Assays:
BIRC3 = molecular target: T1, BIRC3 (Homo sapiens, UniProt Q13489); assay: Western blot of BIRC3 content in human T cells; type: cell-based; conditions: MG132 10 μM with EV-3, 24 h
T1 construct: endogenous in cells; host or cells: primary human T cells
T1 sequence (Q13489 whole entry): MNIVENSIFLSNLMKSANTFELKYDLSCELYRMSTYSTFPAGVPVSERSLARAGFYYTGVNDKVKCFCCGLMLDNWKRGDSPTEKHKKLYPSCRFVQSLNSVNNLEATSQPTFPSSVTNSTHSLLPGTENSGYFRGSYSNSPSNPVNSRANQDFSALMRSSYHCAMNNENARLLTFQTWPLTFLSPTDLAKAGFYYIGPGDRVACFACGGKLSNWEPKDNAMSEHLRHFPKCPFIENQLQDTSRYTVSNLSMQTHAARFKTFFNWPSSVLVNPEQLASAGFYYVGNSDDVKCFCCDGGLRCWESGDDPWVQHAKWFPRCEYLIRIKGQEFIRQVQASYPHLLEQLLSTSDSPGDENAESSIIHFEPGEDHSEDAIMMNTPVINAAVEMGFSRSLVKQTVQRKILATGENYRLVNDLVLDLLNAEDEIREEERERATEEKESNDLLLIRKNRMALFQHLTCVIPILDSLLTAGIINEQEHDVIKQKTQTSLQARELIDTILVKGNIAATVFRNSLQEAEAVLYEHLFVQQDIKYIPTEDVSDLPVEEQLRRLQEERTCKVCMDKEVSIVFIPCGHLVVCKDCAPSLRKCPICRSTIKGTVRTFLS

ITK = molecular target: T2, ITK (Homo sapiens, UniProt Q08881); assay: Western blot of ITK protein content in T cells; type: cell-based; conditions: MG132 10 μM
T2 construct: endogenous in cells; host or cells: primary human T cells (αCD3/CD28-stimulated, naïve or expanded)
T2 sequence (Q08881 1-620): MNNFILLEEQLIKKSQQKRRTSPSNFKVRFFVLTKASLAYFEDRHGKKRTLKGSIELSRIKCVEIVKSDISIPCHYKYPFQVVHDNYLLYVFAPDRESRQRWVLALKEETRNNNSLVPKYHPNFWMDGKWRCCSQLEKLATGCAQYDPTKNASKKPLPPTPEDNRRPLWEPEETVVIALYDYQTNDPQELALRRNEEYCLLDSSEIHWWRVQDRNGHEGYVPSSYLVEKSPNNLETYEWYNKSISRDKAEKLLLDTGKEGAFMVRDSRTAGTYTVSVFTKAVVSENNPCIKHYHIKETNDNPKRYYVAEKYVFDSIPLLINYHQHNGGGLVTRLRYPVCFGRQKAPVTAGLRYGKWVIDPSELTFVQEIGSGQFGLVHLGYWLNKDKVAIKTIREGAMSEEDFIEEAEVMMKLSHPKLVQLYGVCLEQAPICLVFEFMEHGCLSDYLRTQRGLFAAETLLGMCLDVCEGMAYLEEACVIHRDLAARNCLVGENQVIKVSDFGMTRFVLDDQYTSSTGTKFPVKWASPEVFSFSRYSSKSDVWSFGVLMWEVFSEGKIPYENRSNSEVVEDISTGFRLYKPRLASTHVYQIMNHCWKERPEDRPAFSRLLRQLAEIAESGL
Protocol: T cells were treated with DMSO or compounds (5 μM each) for 8 h. […] (F) Quantitation of western blot data, where protein band intensity calculations were made using ImageJ software and represent the mean percentage of DMSO-treated control±SD; n=2-5 independent experiments per group. **p<0.01 by two-tailed unpaired t test with Welch's correction compared to EV-97 treatment. […] Data are presented as the mean percentage of DMSO-treated control±SEM; n=4 independent experiments per group. ****p<0.0001 by two-tailed unpaired t test with Welch's correction compared to DMSO-treated stim control.
Results are from one experiment representative of 2-5 independent experiments. […] Cells were treated with compounds (5 μM each) or DMSO control for 8 h. Protein band intensity calculations were made using ImageJ software and represent the mean percentage of DMSO-treated control±SD; n=2-5 independent experiments per group. **p<0.01 by two-tailed unpaired t test with Welch's correction compared to DMSO-treated stim control. […] Cells treated with DMSO or EV-96 (5 μM) for 1-8 h. Results are from a single experiment representative of 2-4 independent experiments. […] Cells were treated with compounds (5 μM each) or DMSO for 8 h. Results are from one experiment representative of 2 independent experiments.

NuRD complex = assay: Expression-based proteomics (TMT-exp) of compound-treated T cells, NuRD complex; type: cell-based, human; conditions: MG132 10 μM co-treatment, 24 h
Protocol: FIG. 7B is a scatter plot representation of protein abundance changes caused by BPK-25 (10 μM, 24 h) in two independent replicate experiments, with decreases in NuRD complex components highlighted in red. FIG. 7C is a heatmap of top proteins with decreased abundance in BPK-25-treated T cells showing that the subset of these proteins in the NuRD complex (asterisks) were largely unaltered by other active compounds and blocked in their degradation by co-treatment with the proteasome inhibitor MG132. […] FIG. 7E is a bar graph […] showing time-dependent reductions in NuRD complex members in human T cells treated with BPK-25 (10 μM). Left, representative western blots. Right, quantification of changes in protein. […] FIG. 7G is a heat map showing the changes in cysteine reactivity for NuRD complex members in human T cells treated with BPK-25 and other active compounds.
Freshly isolated T cells (1.6×10^7 cells, 2×10^6 cells/mL in RPMI media) were treated with compound or DMSO for 24 h, pelleted (600 g, 5 min), and washed with PBS (1×10 mL). The cells were then transferred to an Eppendorf tube in additional PBS (1 mL), pelleted (600 g, 5 min), flash frozen, and kept at −80° C. until further analysis. On the first day of the whole proteome TMT protocol, the cells were thawed on ice and lysed in lysis buffer (150 μL, 1 tablet of Roche complete, mini, EDTA-free Protease Inhibitor Cocktail dissolved in 10 mL of PBS) using a probe sonicator (2×8 pulses). Protein concentration was adjusted to 2.0 mg/mL and the samples (100 μL) were transferred to new Eppendorf tubes (1.5 mL) containing urea (48 mg/tube, final urea concentration: 8 M). DTT (5 μL, 200 mM fresh stock in H2O, final DTT concentration: 10 mM) was then added to the tubes and the samples were incubated at 65° C. for 15 min. Following this incubation, iodoacetamide (5 μL, 400 mM fresh stock in H2O, final IA concentration: 20 mM) was added and the samples were incubated in the dark at 37° C. with shaking for 30 min. Ice-cold MeOH (600 μL), CHCl3 (200 μL), and H2O (500 μL) were then added, the mixture was vortexed and centrifuged (10,000 g, 10 min, 4° C.) to afford a protein disc at the interface of CHCl3 and aqueous layers. The top layer was aspirated without perturbing the disk, additional MeOH (600 μL) was added and the proteins were pelleted (10,000 g, 10 min, 4° C.) and used in the next step or stored at −80° C. overnight.
The resulting protein pellets were resuspended in EPPS buffer (160 μL, 200 mM, pH 8) using a probe sonicator (2×6 pulses). […]
The sample became clear after the overnight digestion. At this point, peptide concentration was determined using microBCA assay (Thermo Scientific) according to manufacturer's instructions. […]

BIRC2 = BIRC2 (Homo sapiens, UniProt Q13490); assay: Western blot of BIRC2 content in human T cells; conditions: MG132 10 μM with EV-3, 24 h
Chain of BIRC2 (Q13490 whole entry): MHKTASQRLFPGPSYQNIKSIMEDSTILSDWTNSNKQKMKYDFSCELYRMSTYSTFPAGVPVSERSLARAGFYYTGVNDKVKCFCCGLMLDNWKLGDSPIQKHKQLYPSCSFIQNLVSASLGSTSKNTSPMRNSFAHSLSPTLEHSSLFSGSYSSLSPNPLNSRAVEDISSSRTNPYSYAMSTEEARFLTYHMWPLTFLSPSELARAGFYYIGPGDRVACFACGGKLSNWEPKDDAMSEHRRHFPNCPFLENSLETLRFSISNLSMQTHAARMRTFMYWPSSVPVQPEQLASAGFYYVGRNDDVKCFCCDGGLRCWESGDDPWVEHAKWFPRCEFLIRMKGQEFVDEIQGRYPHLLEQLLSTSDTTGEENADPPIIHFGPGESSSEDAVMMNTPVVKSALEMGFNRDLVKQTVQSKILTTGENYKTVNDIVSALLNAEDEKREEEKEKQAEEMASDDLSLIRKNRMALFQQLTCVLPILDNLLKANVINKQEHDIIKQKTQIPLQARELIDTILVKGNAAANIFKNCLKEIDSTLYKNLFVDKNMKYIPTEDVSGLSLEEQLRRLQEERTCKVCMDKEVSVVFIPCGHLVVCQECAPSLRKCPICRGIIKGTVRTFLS
Protocol: All treatments were for 24 h.
All treatments were for 24 h. […] Plasmids expressing FLAG epitope-tagged versions of wild-type (WT) or the indicated cysteine-to-alanine mutants of BIRC2 (C45A) and BIRC3 (C28A) were co-transfected into primary human T cells with mCherry-expressing plasmid to control for transfection efficiency for 24 h. Cells were then treated with DMSO, EV-3 (10 μM), or AT-406 (1 μM) for 24 h and analyzed by anti-FLAG western blotting. […] (G) Quantitation of western blot data, where protein band intensity calculations were made using ImageJ software and represent the mean percentage of DMSO treated control±SEM; n=3 independent experiments per group. *p<0.05; **p<0.01 by two-tailed unpaired t test with Welch's correction compared to respective DMSO treatments.
Western blot analysis was performed on freshly isolated or expanded T cells. For Western blot protein degradation analysis, primary human T cells (2×10^7 cells/treatment) were re-suspended in RPMI media at 2×10^6 cells/mL and treated with the compounds or DMSO at 37° C. in a CO2 containing incubator for 24 h (or otherwise indicated times).

ERCC3 = molecular target: T3, ERCC3 (Homo sapiens, UniProt P19447); assay: isoTOP-ABPP and TMT-ABPP cysteine engagement, ERCC3; type: binding
T3 construct: endogenous in cells; host or cells: primary human T cells
T3 sequence (P19447 1-782): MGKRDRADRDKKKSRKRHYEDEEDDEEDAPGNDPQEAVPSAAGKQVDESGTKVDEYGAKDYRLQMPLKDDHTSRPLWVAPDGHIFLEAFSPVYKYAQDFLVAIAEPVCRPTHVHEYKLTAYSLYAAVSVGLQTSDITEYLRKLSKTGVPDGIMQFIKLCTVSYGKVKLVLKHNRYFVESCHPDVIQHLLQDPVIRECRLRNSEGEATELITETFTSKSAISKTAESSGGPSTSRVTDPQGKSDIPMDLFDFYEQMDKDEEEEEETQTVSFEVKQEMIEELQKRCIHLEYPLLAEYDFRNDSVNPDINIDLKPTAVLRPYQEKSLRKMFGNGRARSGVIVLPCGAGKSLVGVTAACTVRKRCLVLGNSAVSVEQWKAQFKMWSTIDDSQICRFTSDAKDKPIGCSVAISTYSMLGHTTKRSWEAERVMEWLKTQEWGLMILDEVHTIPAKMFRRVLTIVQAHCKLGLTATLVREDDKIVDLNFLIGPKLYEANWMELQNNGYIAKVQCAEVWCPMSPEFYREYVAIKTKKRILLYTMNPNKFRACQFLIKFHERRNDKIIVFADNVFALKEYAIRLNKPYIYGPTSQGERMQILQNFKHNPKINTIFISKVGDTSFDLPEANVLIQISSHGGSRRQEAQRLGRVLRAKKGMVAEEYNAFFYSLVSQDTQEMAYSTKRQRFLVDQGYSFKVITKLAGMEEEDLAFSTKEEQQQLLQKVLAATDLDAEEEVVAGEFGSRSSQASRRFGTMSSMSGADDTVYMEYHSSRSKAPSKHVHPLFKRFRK
Protocol: Activated or expanded T cells were re-suspended in RPMI media supplemented with 10% FBS, L-glutamine (2 mM), penicillin (100 U/mL), and streptomycin (100 μg/mL) at 2×10^6 cells/mL. The compounds were added to cells as 1000×DMSO stocks and mixed well with the media by pipetting up and down after addition. The cells were kept at 37° C. in 5% CO2 containing incubators for 3 h (or otherwise specified times), then pelleted by centrifugation (524 g, 5 min, 4° C.), washed with cold PBS (10 mL) and transferred to Eppendorf tubes (1 mL PBS). The cells were pelleted again (524 g, 5 min, 4° C.), flash-frozen, and kept at −80° C. until further analysis.
Activated or expanded primary human T cells were re-suspended in RPMI (1×10^6 cells/mL) containing 10% fetal bovine serum (FBS), penicillin (100 U/mL), streptomycin ([…]), and L-glutamine (2 mM). The cells were treated with DMSO or compounds for 3 h, pelleted (524 g, 5 min), washed with PBS, and lysed by sonication (2×8 pulses). Soluble and particulate proteomic fractions were separated by ultracentrifugation (100,000 g, 45 min), and protein concentration was normalized to 1.7 mg/mL using a standard DC protein assay (Bio-Rad). The resulting proteomes were analyzed by competitive isotopic Tandem Orthogonal Proteolysis Activity-Based Protein Profiling (isoTOP-ABPP).
Samples (500 μL, 1.7 mg/mL) were treated with iodoacetamide alkyne (IA-alkyne, 5 μL of 10 mM stock in DMSO, final concentration: 100 μM) for 1 h at ambient temperature. Modified proteins were then conjugated to isotopically labeled, TEV-cleavable biotin tags (TEV-tags) using copper-catalyzed azide-alkyne cycloaddition reaction (CuAAC). Reagents for the CuAAC reaction were pre-mixed prior to their addition to the proteome samples. […]
The heavy/light isoTOP-ABPP ratios (R values) for each unique peptide (DMSO/compound treated) were quantified with in-house CIMAGE software (Weerapana et al., 2010) using default parameters (3 MS1 acquisitions per peak and signal to noise threshold set to 2.5). Site-specific engagement of cysteine residues was assessed by blockade of IA-alkyne probe labeling. […] Ratios for unique peptide sequences were calculated for each experiment; overlapping peptides with the same modified cysteine (e.g., different charge states, elution times or tryptic termini) were grouped together and the median ratio was reported as the final ratio (R). […]

primary human T cells = conditions: cited from earlier work
NF-κB = conditions: cited from earlier work

SMILES	effect on EV-3-induced loss of BIRC3 (BIRC3)	effect on EV-96-mediated loss of ITK (co-treatment) (ITK)	effect on BPK-25-mediated reductions in NuRD complex proteins (NuRD complex)	effect on EV-3-induced loss of BIRC2 (BIRC2)	engagement of C342 of ERCC3 (ERCC3)	effect on T cell activation (has been shown) (primary human T cells)	NF-κB DNA binding activity (has been shown) (NF-κB)
CC(C)C[C@@H](C=O)NC(=O)[C@H](CC(C)C)NC(=O)[C@H](CC(C)C)NC(=O)OCc1ccccc1 [MG132, reference compound] (Cbz-Leu-Leu-Leu-aldehyde)	blocks	blocked	blocked	blocks	–	–	–
CC(C)[C@]12O[C@H]1[C@@H]1O[C@]13[C@]1(O[C@H]1C[C@H]1C4=C(CC[C@@]13C)C(=O)OC4)[C@@H]2O [triptolide]	–	–	–	–	also targeted	impair T cell activation	without blocking
